# Test results: article PMC8152814, “The modulatory role of sulfated and non-sulfated small molecule heparan sulfate-glycomimetics in endothelial dysfunction: absolute structural clarification, molecular docking and simulated dynamics, SAR analyses and ADMET studies” (RSC Medicinal Chemistry, 2021)
# Columns and labels:
# [1] = system: reactive oxygen species (ROS); assay: ROS production in FFA-stressed cells; format: cell-based, human; details: averaged % of increase (+) or decrease (−) compared to control (FFA induced oxidatively stressed endothelial cells), n = 3
# Text: (§1) The assays focused on the production of nitric oxide (NO) and the upregulation of nitric oxide synthase (eNOS), the production of reactive oxygen species (ROS) and the activity of nicotinamide adenine dinucleotide phosphate (NADPH) oxidase (Table 2). From the hypothesised model of heparan sulfate-glycomimetic activity,[17] the glycomimetics are proposed to attenuate the binding of HGF to the cMET receptor. This disruption to MET-receptor activation is proposed to modulate intracellular phosphorylation leading to an upregulation of eNOS and increased output of extracellular NO. […] Overall, the cross examination of NO output and reduction of ROS was used to determine the therapeutic action of the triaged glycomimetics α-4, R-10, S-10 and β-5, as well as 3 non-sulfated intermediates α-2, α-3 and β-3, on free fatty acid (FFA) induced, oxidatively stressed endothelial cell cultures (Table 2).
# (§2) Biological assay and AMDET experimental details […]
# (§3) Preparation of FFA-albumin complexes and cell treatments
# (§4) To generate the in vitro model of oxidative stress, sodium palmitate was bound to bovine serum albumin (BSA) as outlined by Chavez and Summers,S2 with modifications. Sodium palmitate (FFA) was dissolved in EtOH at 60 °C and diluted 1:100 in M199 media supplemented with 2% fatty acid-free bovine serum albumin (BSA) and incubated for 1 h at 37 °C. HepG2 cells were treated with 1 μmol/L of the synthesized HS-glycomimetics in the presence of palmitate (100 μmol/L) for 3 h or pre-treated with glycomimetics for 12 h followed by 3 h palmitate (100 μmol/L). Control cells were incubated in serum free M199 containing 2% (wt/vol) fatty acid-free BSA.
# NO release assay and Quantification of ROS production […]
# The auto-fluorescence was subtracted from each value. Cells were incubated with 10 μmol/L of the fluorescent probe: 2′-7′-dichlorodihydrofluorescein diacetate (CM-H2DCFDA, Sigma) for 30 min at 37 °C, and the level of fluorescence was determined (excitation 490 nm; emission 540 nm) using a microplate reader (BioTek).
# (§5) The level of NADPH-enhanced superoxide anions (O2•−) in HepG2 homogenates was determined by lucigenin-enhanced chemiluminescence.S4 Following the various treatment conditions, cells were homogenized in a buffer (20 mmol/L H2KPO4 and 1 mmol/L EDTA supplemented with aprotinin, leuprotinin, pepstatin and PMSF). The total protein quantified using the Bicinchoninic acid (BCA) assay (Pierce Biotechnology). To 50 μg of total protein, NADPH (100 μmol/L) was added in a total volume of 500 μL, with lucigenin (5 μmol/L) and was injected automatically. Activity was determined by measuring luminescence over 200 s in a scintillation counter (Lumat LB 9507, Berthold, Germany). Basal values of NADPH oxidase activity were subtracted from the experimental values and expressed as RLU/min/μg protein […]
# (§6) In situ quantification of ROS species
# (§7) Superoxide dismutase (SOD) and catalase (CAT) activity assays, and in situ detection of vascular ROS content. The activity of the enzymes, SOD and CAT, was determined in cell homogenates using assay kits according to the manufacturer's instructions (Cayman; Cat No 706002 and 707002 respectively). A unit of SOD was defined as the amount of enzyme […]
# (§8) Similarly, a unit of CAT was […]
# defined as the amount required to form 1.0 nmol of formaldehyde per min at 25 °C.S5 […]
# HepG2 cells were incubated in serum-free DMEM containing 2% fatty acid-free BSA (control) or palmitate conjugated BSA (100 μmol/L) in the presence of HS-glycomimetics (1 or 10 μmol/L) for 24 h. The cells were incubated for 30 min in Hepes-buffered solution containing 10 μmol/L dihydroethidium (DHE), which intercalates with DNA in the presence of ROS and is detectable by fluorescence. Cells were counterstained with the nuclear stain DAPI at 0.3 μmol/L. In the following 24 h, the cell cultures were examined using a fluorescence microscope (Leica DMIRB). Sections were photographed and fluorescence was quantified using ImageJ. […]
# NADPH oxidase = NADPH oxidase activity (lucigenin chemiluminescence) in cell homogenates; format: cell-based, human; set-up: concentration or dose not given beside the values; details: averaged % of increase (+) or decrease (−) compared to control (FFA induced oxidatively stressed endothelial cells), n = 3
# Text: as §1, §2, §3
# as §4, with “BSA. […]” for “BSA.”
# H2DCFDA, Sigma) for 30 min at 37 °C, and the level of fluorescence was determined (excitation 490 nm; emission 540 nm) using a microplate reader (BioTek).
# as §5, §6, §7, §8
# defined as the amount required to form 1.0 nmol of formaldehyde per min at 25 °C.S5
# Chemical stability = format: physicochemical
# Text: | column: α-4; β-5; R-10; S-10
# eNOS = eNOS phosphorylation (Western blot) in FFA-stressed cells; format: cell-based, human; details: averaged % of increase (+) or decrease (−) compared to control (FFA induced oxidatively stressed endothelial cells), n = 3
# Text: as §1, §2, §3
# as §4, with “BSA. […]” for “BSA.”
# HepG2 wells were lysed in RIPA buffer containing proteinase inhibitors and the total protein was quantified using BCA protein assay kit (Pierce Biotechnology). Proteins (30 μg/well) were denatured and separated by sodium dodecyl sulfate (SDS)-polyacrylamide gel electrophoresis and transferred to polyvinylidene difluoride (PVDF) membranes. Blots were blocked for 1 h in 5% semi-skimmed milk/Tris-Buffered Saline Tween-20 (TBS-T), probed with primary rabbit anti-phospho-protein kinase B (Akt), rabbit anti-Akt (Santa Cruz Biotechnology), rabbit polyclonal anti-phospho-eNOS (Cell Signaling) overnight at 4 °C followed by washing and incubation with the corresponding horse radish peroxidase-labelled secondary antibody for 1 h at room temperature. After washing with TBS-T, membranes were incubated with ECL reagent and visualized (Amersham Pharmacia Biotech). Densitometry analysis using ImageJ© (version 1.32j, NIH) was used to quantify the protein signal.S7 […]
# (typically 0.01 M phosphate buffered saline pH 7.4) so that the final DMSO concentration is 1 % and the final test compound concentrations are 1, 3, 10, 30 and 100 µM. The experiment is performed at 37 °C and each concentration is incubated in 7 replicate wells. The plates are incubated for 2 h at 37 °C before the absorbance is measured at 620nm. Nicardipine (pH dependent) and pyrene (pH independent) are included as control compounds. The solubility is estimated from the concentration of test compound that produces an increase in absorbance above vehicle control (1% DMSO in buffer).
Structure (SMILES),ROS production [1] [%],NADPH oxidase activity (NADPH oxidase) [%],Chemical stability (Chemical stability),eNOS phosphorylation (eNOS)
"COC(=O)c1cc(OC[C@@H](COS(=O)(=O)[O-])OS(=O)(=O)[O-])ccc1OCC(COS(=O)(=O)[O-])OS(=O)(=O)[O-].[Na+].[Na+].[Na+].[Na+] (mixture of isomers) [α-4, sodium 3-(4-((S)-2,3-bis(sulfonatooxy)propoxy)-2-(methoxycarbonyl)phenoxy)propane-1,2-diyl bis(sulfate)]",−28,−29,Yes,+342%
"O=C([O-])c1cc(OC[C@H](COS(=O)(=O)[O-])OS(=O)(=O)[O-])ccc1OCC(COS(=O)(=O)[O-])OS(=O)(=O)[O-].[Na+].[Na+].[Na+].[Na+].[Na+] (mixture of isomers) [β-5, sodium 5-((R)-2,3-bis(sulfonatooxy)propoxy)-2-(2,3-bis(sulfonatooxy)propoxy)benzoate]",−29,−31,Yes,+318%
"COC(=O)c1cc(OC[C@H](COS(=O)(=O)[O-])OS(=O)(=O)[O-])ccc1OCCCCOS(=O)(=O)[O-].[Na+].[Na+].[Na+] [Compound R-10, sodium (R)-3-(3-(methoxycarbonyl)-4-(4-(sulfonatooxy)butoxy)phenoxy)propane-1,2-diyl bis(sulfate)]",−23,−31,Yes,+613%
"COC(=O)c1cc(OC[C@@H](COS(=O)(=O)[O-])OS(=O)(=O)[O-])ccc1OCCCCOS(=O)(=O)[O-].[Na+].[Na+].[Na+] [Compound S-10, sodium (S)-3-(3-(methoxycarbonyl)-4-(4-(sulfonatooxy)butoxy)phenoxy)propane-1,2-diyl bis(sulfate)]",−39,−27,Yes,+397%
